Experimental data taken from US20230210866A1 (priority 2020, published 2023).
“And” between values parts separate entries of the source, which are not always exact repeats. Equal values may be shown once. Read-outs that look alike come from different tables or passages of the source.

Experiments:
SARS-CoV-2 virus [1] = experiment: Vero E6 cells infected by SARS-CoV-2, viral infectious titre in culture supernatant; type: cell-based; settings: monotherapy
Experimental: The viral production relative to each of the concentrations of molecules has been determined and is shown with respect to the viral production from infected cells or HAE under the same conditions but untreated. The median inhibitory concentrations (IC50) were determined for each treatment condition.
The Vero E6 (ATCC CRL-1586) cells were cultivated in medium DMEM 4.5 g/l of glucose, supplemented by L-glutamine and penicillin/streptomycin and 10% inactivated foetal calf serum, at 37° C., 5% CO2.
In order to produce the infections, the cells were rinsed twice by the medium without serum and were covered by a minimum volume containing a dilution of virus, this dilution being determined from the infectious titre (cf. section on determination of the infectious titre), in order to obtain an adequate multiplicity of infection (MOI). After incubation for one hour in the presence of a minimum volume, the medium was replaced by the medium DMEM 4.5 g/l of glucose, supplemented by L-glutamine and penicillin/streptomycin and 2% inactivated foetal calf serum, and the cells were incubated again at 37° C., 5% CO2.
The determination of the infectious titre was performed using a limited dilution technique, on these Vero E6 cells on a 96-well plate. A volume of 50 µl of series dilutions was deposited in the wells in quadruplicates. The cells were then incubated at 37° C., 5% CO2 and the presence of cytopathic effects is then monitored after 3 days of infection. The infectious dose in tissue culture 50% (DICT50/ ml), i.e. the viral titre required to form an infection in 50% of inoculated cells, was calculated using the technique of Reed and Muench.
Vero E6 cells infected by SARS-CoV-2 (MOI 0.1) were treated at one hour post-infection by increasing concentrations of: • diltiazem (2.8 to 45 µM), • berberine (1.6 to 25 µM), and • remdesivir (0.6 to 10 µM), alone (FIG. 1) and in combination (FIG. 2).
For each of the combined treatments tested, a dose of one of the molecules was fixed and combined with increasing concentrations of the other molecule (same concentration ranges as those used in monotherapy, respectively) and vice versa. The viral infectious titres measured in the culture supernatants of the infected cells (sampled at 48 and 72 hours post-infection) reflect the level of viral replication measured under the various treatment conditions.

SARS-CoV-2 virus [2] = experiment: Reconstituted human respiratory epithelium of nasal origin (MucilAir HAE) infected with SARS-CoV-2, viral genome RT-PCR; type: cell-based; settings: alone or combined
Experimental: In order to produce the infections, we have also used a reconstituted human epithelium model (HAE MucilAir, Epithelix), obtained from primary human cells obtained by nasal biopsies, cultivated at the air-liquid interface with a specific culture medium in Costar Transwell inserts (Corning, NY, USA). For the infection experiments, the apical poles were gently washed twice using the medium OptiMEM (Gibco, ThermoFisher Scientific), then infected with 150 µl of virus dilution in medium OptiMEM, with a multiplicity of infection (MOI) of 0.1. After incubation for one hour at 37° C., 5% CO2, the viral suspension was withdrawn.
A quantitative “one-step” PCR was performed using the StepOnePlus Real Time PCR System kit (Applied Biosystems), with the reagent EXPRESS One-Step Superscript qRT-PCR (Invitrogen), in a reaction volume of 20 µl containing 10 µl of supermix Express qPCR (2×), 1 µl of each primer (10 µM), […], 0.4 µl Rox dye (25 µM) and 2 µl of viral RNA.
The following program was used: 15 minutes at 50° C., followed by 40 cycles (15 s 95° C.; 1 min 60° C.).
Reconstituted human respiratory epithelia of nasal origin and cultivated at the air-liquid interface (MucilAir® HAE, Epithelix) were infected with SARS-CoV-2 (MOI 0.1). The basal medium was treated once per day by the following molecules, in simple or combination treatment: • diltiazem (45 or 90 µM), • remdesivir (20 or 40 µM) and • berberine (4 µM) for 48 or 72 hours post-infection.
At various times, the epithelia were harvested and lysed. The total RNA was extracted and the viral genomes were quantified by RT-PCR by normalising the data using the quantification of the product of a cellular gene (GAPDH).

[3] = cited from earlier work
[4] = test system: SARS-CoV-2 (Wuhan-like strain); experiment: A549-ACE2 cells infected with SARS-CoV-2, viral titre in supernatant over time by RT-PCR; type: cell-based; settings: A549-ACE2, MOI 10^-1 and 10^-2, single treatment 1 hpi, diltiazem 45 µM or remdesivir 5 µM, 24-96 hpi
From the text: The cells of the cell line A549 are human alveolar basal epithelial cells derived from adenocarcinoma. This cell line is used as a model for the study of lung cancer, but also as target cells for infectious viruses targeting the respiratory tract. These cells were subsequently modified to express the ACE2 receptor, via which the SARS-CoV-2 virus penetrates into the hosts cells. This cell line A549-ACE2 was obtained from Creative Biogene (USA).
The experimental protocol is the following: • Seeding of the A549-ACE2 cells, • 24 hours after infection of the A549-ACE2 cells with a Wuhan-like strain of SARS-CoV-2 (MOI 10^-1 and 10^-2), • 1 hour post infection (pi), the cells are treated with 45 uM diltiazem. • The supernatants are sampled at 24 hours, 48 hours, 72 hours and 96 hours after the infection for a viral quantification by RT-PCR.
The incubation media used are the following: • Seeding medium: DMEM 1 g/L glucose (Glc), 200 mM L-Glutamine (L-Glu), […] penicillin/streptomycin (P/S), 10% foetal calf serum (FCS) • Infection medium: DMEM 1 g/L Glc, 200 mM L-Glu, 104 U P/S, 0% FCS • Treatment medium: DMEM 1 g/L Glc, 200 mM L-Glu, 104 U P/S, 2% FCS

[5] = test system: SARS-CoV-2 (Wuhan-like strain); experiment: IC50 of diltiazem on SARS-CoV-2 in A549-ACE2 cells, RT-PCR; type: cell-based; settings: Severe acute respiratory syndrome coronavirus 2; A549-ACE2, MOI 10^-1, treated 1 hpi, 72 hours after infection
Experimental: The experimental protocol is the following: • Seeding of the A549-ACE2 cells, • 24 hours after infection of A549-ACE2 cells with a Wuhan-like strain of SARS-CoV-2 (MOI 10^-1), • 1 hour post infection (pi), the cells are treated with diltiazem at different concentrations. • The supernatants are sampled at 72 hours after the infection for a viral quantification by RT-PCR.
The IC50 is the median inhibitory concentration, i.e. the quantity of diltiazem necessary to obtain 50% inhibition of the viral replication of the tested SARS-CoV-2 strain.

[6] = Cytotoxicity (CC50) on A549-ACE2 cells, MTS test; type: cell-based; settings: human, 72 hours of treatment, read-out: CC50 (cytotoxic concentration 50%)
Experimental: In parallel, the cytotoxicity of diltiazem on A549-ACE2 cells has been verified under the same experimental conditions. For this purpose, the CC50 (cytotoxic concentration 50%), which corresponds to the necessary dose of diltiazem in order to reduce the viability of the cells by half, was measured by monitoring the viability of the A549-ACE2 cells in the presence of various concentrations of diltiazem. The variability was determined by an MTS carried out 72 hours after the start of the treatment.
The MTS test is a colorimetric method: the method is based on the reduction of the compound MTS tetrazolium by viable cells in order to generate a coloured formazan product, enabling the counting of viable cells (coloured) […].

coronavirus SARS-CoV-2 = type: cell-based
[7] = MOI 0.1, 48 hpi, remdesivir 20 µM, diltiazem 90 µM, berberine 4 µM
[8] = Severe acute respiratory syndrome coronavirus 2, Vero C1008, Vero E6, MOI 0.01, 48 hpi, read-out: IC50
[9] = Severe acute respiratory syndrome coronavirus 2, Vero C1008, Vero E6, MOI 0.01, 72 hpi, read-out: IC50
[10] = MOI 0.1, 72 hpi, remdesivir 20 µM, diltiazem 90 µM
[11] = MOI 0.1, 72 hpi, remdesivir 40 µM, diltiazem 45 µM

COc1ccc2cc3[n+](cc2c1OC)CCc1cc2c(cc1-3)OCO2 [Berberine, berberine]
IC50 (SARS-CoV-2 virus [1]; Severe acute respiratory syndrome coronavirus 2, Vero C1008, Vero E6, MOI 0.01, 48 hpi): 17.5 µM | IC50 (SARS-CoV-2 virus [1]; Severe acute respiratory syndrome coronavirus 2, Vero C1008, Vero E6, MOI 0.01, 72 hpi): < 5.6 µM | IC50 (SARS-CoV-2 virus [1]; Vero E6, MOI 0.01, 72 hpi, read-out: IC50): 5.6 ± 1.7 µM | Reduction Relative viral production (%) (SARS-CoV-2 virus [2]; [7]): 86.37% | Reduction Relative viral production (-log10) (SARS-CoV-2 virus [2]; [7]): 0.86 -log10 and 0.8655 -log10 | bioavailability [3]: low | half-life [3]: ~4 h

COc1ccc([C@@H]2Sc3ccccc3N(CCN(C)C)C(=O)[C@@H]2OC(C)=O)cc1.Cl [Diltiazem, diltiazem]
Inhibition of the viral titre in the supernatant over time (% of untreated) [4]: same level of inhibition of the viral titre | IC50 [5]: 19.7 µM | IC50 (SARS-CoV-2 virus [1]; [8]): > 45 µM | IC50 (SARS-CoV-2 virus [1]; [9]): > 45 µM | Reduction Relative viral production (%) (SARS-CoV-2 virus [2]; [7]): 55.13% | Reduction Relative viral production (-log10) (SARS-CoV-2 virus [2]; [7]): 0.35 -log10 and 0.348 -log10 | Reduction Relative viral production (%) (SARS-CoV-2 virus [2]; [10]): 29.37% | Reduction Relative viral production (-log10) (SARS-CoV-2 virus [2]; [10]): 0.15 -log10 and 0.151 -log10 | Reduction Relative viral production (%) (SARS-CoV-2 virus [2]; [11]): 31.35% | Reduction Relative viral production (-log10) (SARS-CoV-2 virus [2]; [11]): 0.16 -log10 and 0.1634 -log10 | CC50 at 72 h [6]: 374 µM

CCC(CC)COC(=O)[C@H](C)N[P@](=O)(OC[C@H]1O[C@@](C#N)(c2ccc3c(N)ncnn23)[C@H](O)[C@@H]1O)Oc1ccccc1 [Remdesivir, remdesivir]
IC50 (SARS-CoV-2 virus [1]; [8]): 0.98 µM | IC50 (SARS-CoV-2 virus [1]; [9]): 0.72 µM | Reduction Relative viral production (%) (SARS-CoV-2 virus [2]; [7]): 100% | Reduction Relative viral production (-log10) (SARS-CoV-2 virus [2]; [7]): more than 7.75 -log10 | Reduction Relative viral production (-log10) (SARS-CoV-2 virus [2]; MOI 0.1, 48 hpi, remdesivir 20 µM, diltiazem 90 µM, berberine 4 µM, listed as remdesivir): 7.351 -log10 | Reduction Relative viral production (%) (SARS-CoV-2 virus [2]; [10]): 99.62% | Reduction Relative viral production (%) (SARS-CoV-2 virus [2]; [11]): 99.5% | Reduction Relative viral production (-log10) (SARS-CoV-2 virus [2]; [11]): 2.3 -log10 and 2.24 -log10

O=c1cc(-c2ccc(O)cc2)oc2cc(O)cc(O)c12 [apigenin]
Antiviral action against coronavirus SARS-CoV-2 (coronavirus SARS-CoV-2): does not have a significant antiviral action
